Data set [1] concerns mitochondria isolated from HEK293T cells. Kind of data set: Cytochrome c release assay. To be noted: 10 µM peptide, 5 min incubation, 30°C, Western blot of supernatant and pellet. Format: biochemical. The method, then:
Thus, we tested the ability of the different peptides to induce the release of mitochondrial proteins by incubating them with mitochondria isolated from HEK293T cells, and subsequently assaying the supernatant and pelleted fractions with antibodies for cytochrome c and mitoHSP70. […] On the other hand, incubation of mitochondria with 10 µM BID-α6 induced a slower release, with depletion of the mitochondrial pool of cytochrome c occurring only after 1 hour incubation.
Figure 7 Cytochrome c release assays. Peptides were incubated with isolated mitochondria for the indicated times (min) and the release of cytochrome c was monitored by Western blotting (IB). MitoHSP70 was used as an equal-loading control for the pellet fraction. Control lanes indicate that in the preparation the MOM is intact and cytochrome c is retained within the intermembrane space. A. Cytochrome c release assays for the first (BAX-α5S, BCLX-α5S, BID-α6) and second helices (BAX-α6, BCLX-α6, BID-α7) of the ‘pore domain’ of BAX, BCL-xL and BID using mitochondria isolated from HEK293T cells. B. Cytochrome c release assays for BAX-α5M and BAX-α5MS using mitochondria isolated from MEF and MEK BAX/BAK -/- double knock-out cells (MEF DKO). C. Cytochrome c release assays for the BH3 peptides.
Crude mitochondria were prepared from HEK 293T, mouse embryo fibroblast (MEF) or BAX/BAK double knockout MEF cells (MEF-DKO). In brief, cells were mechanically broken using a 2 ml glass/glass Dounce homogenizer (Kontes) (30 strokes). Homogenates were cleared at 1500 g and mitochondria were spun down at 10 000 g. For cytochrome c release assays, 30 µg of crude mitochondria were resuspended at 1 mg/ml in KCl buffer supplemented with succinate (5 mM) and EGTA (0.5 mM). Peptides (2.5, 10 or 25 µM) were added to the samples and incubations were carried out at 30°C under agitation (300 rpm). At the indicated time points, samples were centrifuged (5 min, 10 000 g, 4°C); supernatants and pellets were recovered and analyzed by immunoblotting for Cytochrome c and mitoHsp70.

Data set [2] can be described thus: Surface pressure change after peptide injection without lipid monolayer. The format is physicochemical. Particulars: peptide 0.2 µM injected into pure subphase, Hepes buffer pH 7.4, 22.5°C; defined as threshold for significant variation. On the procedure: A number of control experiments were carried out in order to characterize the peptide-lipid monolayer interactions at the air-buffer interface. First, we determined surface pressure-time isotherms of Bax-α5S, a strongly amphipathic and hydrophobic peptide (Table 1), in presence or absence of lipids (POPC/DOPE/CL, see Figure 2). When the peptide was injected into a pure subphase without any lipid monolayer, the corresponding surface pressure change was Δπ = 4.8 mN/m (this value was subsequently defined as a threshold level for significant surface pressure variation). When the same injection was repeated but this time using a lipid monolayer over the aqueous subphase, at an initial surface pressure of 5 mN/m, the surface pressure rose up to Δπ = 32.1 mN/m (Figure 2). […] Then, we measured compression–decompression–recompression isotherms in presence of the peptide. […] After stabilization, the peptide was injected underneath the monolayer, πmax was recorded (32.1 mN/m) and the monolayer was decompressed.
Figure 2 Surface pressure-time isotherms for BAX-α5S with (bold line) or without (light line) POPC/DOPE/CL lipids. […] The initial velocity of surface pressure increase (Vi) was calculated as the slope of the curve (Δπ/Δt) at the time of peptide addition. […]

In the case of “WGRVVALFYFASKLVLKALSTK [BAX-α5S, short peptide of the first helix (α5) of the central hairpin of BAX]”, the “cytochrome c release, in words” value in data set [1] is recorded as “complete depletion of all mitochondrial cytochrome c”. In data set [2], the “surface pressure change (Δπ) without lipid monolayer” value is 4.8 mN/m.

(Values after article PMC2816717, “Active Fragments from Pro- and Antiapoptotic BCL-2 Proteins Have Distinct Membrane Behavior Reflecting Their Functional Divergence” (PLoS ONE, 2010).)
